Literature values, collected in patent US20120316171A1, “Tryptophan Hydroxylase Inhibitors for the Treatment of Cancer” (priority 2009, published 2012).

Assays:
[1] = in vivo
[2] = test system: cholangiocarcinoma tumors; conditions: xenograft model of cholangiocarcinoma tumors; Alpini et al. 2008
[3] = test system: carcinoid patients

Which blood-brain barrier passage [1] does the source give for N[C@@H](Cc1ccc(Cl)cc1)C(=O)O (racemic) [pCPA, para-chlorophenylalanine] here?
The blood-brain barrier passage was “crosses the blood-brain barrier”.

And the tumor growth [2]?
The tumor growth was “suppressed tumor growth”.

What about the “adverse effects of administration” value [3] of the same molecule?
The value was “unwanted psychological effects”.

What about the “effect on symptoms of carcinoid syndrome (flushing, diarrhea, valvular damage)” value ([3]; reported in the 1960's) of the same molecule?
Its value is “alleviated some of those symptoms”.
